Reference: patent US20100029654A1, “CARDIOVASCULAR COMPOSITIONS AND USE OF THE SAME FOR THE TREATMENT OF ALZHEIMER'S DISEASE” (MOUNT SINAI SCHOOL OF MEDICINE, priority 2006, published 2010)
pEC50: −log10 of the molar value. Structures can show the parent of a compound that is named as a salt. Where two headings read alike, the source gives them in different places.

Experiments:
Aβ1-40 = Aβ1-40 content in conditioned medium of primary cortico-hippocampal neuron cultures from Tg2576 mice (ELISA; primary and secondary dose-response screening); type: cell-based, mouse; conditions: for Ab1-40 (% of ctl) / activity at 100 µM: drug 100 μM; for activity at 100 µM: Mus musculus, Neuron, 24 h, read-out: Ab1-40 (% of ctl); for reduced Aβ1-40: <85% of ctl
Method: (§1) Potential Aβ-lowering activity was assessed for 150 commercially available cardiovascular drugs using primary cortico-hippocampal neuron cultures derived from embryonic Tg2576 (El 6). […] All cardiovascular reagents were obtained from MicroSource Discovery Systems Inc (Gaylordsville, Conn.). […] Individual cardiovascular agents were applied directly to the culture medium (final 1% DMSO in the culture media). In control studies, parallel Tg2576 primary neuron cultures were treated with vehicle (1% DMSO) alone. The influence of drug treatments in Aβ content in the conditioned medium in treated cultures was assessed by assessing steady state levels of Aβ1-40 and Aβ1-42 in the culture media 24 hours after treatment.
(§2) Embryonic brain tissue was mechanically triturated and centrifuged. Neurons were seeded onto poly-D-lysine-coated 96-well plates at 1.0×10^5 cells per well and cultured in the serum-free chemically-defined medium Neurobasal, supplemented with 2% B27, 0.5 mM L-glutamine and 1% penicillin-streptomycin (Gibco-BRL).
(§3) For primary screening, cultured neurons were treated with 100 μM of drug in duplicates for 16 hours; all drugs were obtained in stock from MicroSource Discovery Systems Inc (Gaylordsville, Conn.). Conditioned medium was collected for Aβ detection using commercially available ELISA kits (BioSource). […] Primary neurons prepared in 96-well plates were treated with 0.1 μM, 1 μM, 10 μM, 50 μM, and 100 μM of each drug in duplicate for ˜16 hours and conditioned medium was collected for Aβ detection.

Aβ1-42 = Aβ1-42 content in conditioned medium of primary cortico-hippocampal neuron cultures from Tg2576 mice (ELISA; primary and secondary dose-response screening); type: cell-based, mouse; conditions: for Ab1-42 (% of ctl) / activity at 100 µM: drug 100 μM; for activity at 100 µM: Mus musculus, Neuron, 24 h, read-out: Ab1-42 (% of ctl); for reducing Aβ1-42: <85% of ctl
Method: as §1, §2, §3

[1] = test system: primary cortico-hippocampal neuron cultures; assay: MTT in primary screening
[2] = test system: primary cortico-hippocampal neuron cultures; assay: lactate dehydrogenase (LDH) activity assay in parallel neuron cultures; conditions: for LDH at E-5M % of change: drug at E-5M
Method: For in vitro treatments drugs available from “The Spectrum Collection” in stocks of 10 mM in DMSO were applied directly to cultures to the desired concentrations (final 1% DMSO); control primary neuron cultures from Tg2576 embryos were treated with vehicle resulting in a final 1% DMSO.
Cell viability was assessed using a commercial available LDH assay kit according to the manufacture's instruction (Promega).

[3] = Primary Screening, table sorted by Aβ1-40
[4] = primary screening, Tg2576 neuron cultures, table sorted by Aβ1-42
[5] = primary screening, table sorted by Aβ1-42

MTT (% of ctl) [1, 3] | MTT (% of ctl) [1, 5] | LDH (% of ctl) [2, 3] | LDH (% of ctl) [2, 5] | LDH at E-5M % of change [2] [%] | pEC50 (Aβ1-40; secondary dose-response screening 0.01-100 μM, 24 hours, read-out: EC50 (molar) Aβ1-40) | Structure (SMILES) | Ab1-40 (% of ctl) (Aβ1-40; [3]) | Ab1-40 (% of ctl) (Aβ1-40; [4]) | Ab1-42 (% of ctl) (Aβ1-42; [3]) | Ab1-42 (% of ctl) (Aβ1-42; [4]) | activity at 100 µM (Aβ1-40; [3]) [%] | activity at 100 µM (Aβ1-40; [4]) [%] | activity at 100 µM (Aβ1-42; [3]) [%] | activity at 100 µM (Aβ1-42; [4]) [%] | reducing Aβ1-42 (Aβ1-42; primary screening) | reduced Aβ1-40 (Aβ1-40; primary screening)
97.1 % of ctl | 97.1 % of ctl | 109.3 % of ctl | 109.3 % of ctl | – | – | CC(C)(C)NCC(O)COc1cccc2[nH]c(=O)[nH]c12 (centres unmarked) [2-HYDROXY-4-(2-HYDROXY-3-T-BUTYLAMINOPROPOXY)-BENZIMIDAZOLE] | – | – | – | – | 99.2 | 99.2 | 104 | 104 | – | –
99.4 % of ctl | 99.4 % of ctl | 107.6 % of ctl | 107.6 % of ctl | – | – | CCCC(=O)Nc1ccc(OCC(O)CNC(C)C)c(C(C)=O)c1 (centres unmarked) [Acebutolol Hydrochloride] | – | – | – | – | 134 | 134 | 165 | 165 | – | –
78.0 % of ctl | 78.0 % of ctl | 173.5 % of ctl | 173.5 % of ctl | – | – | CC(=O)Nc1nnc(S(N)(=O)=O)s1 [Acetazolamide] | – | – | – | – | 115 | 115 | 118 | 118 | – | –
91.8 % of ctl | 91.8 % of ctl | 95.4 % of ctl | 95.4 % of ctl | – | – | COc1cc2nc(N(C)CCCNC(=O)C3CCCO3)nc(N)c2cc1OC (centres unmarked) [Alfluzosin] | 122.7 % of ctl | 122.7 % of ctl | 66.9 % of ctl | 66.9 % of ctl | – | – | – | – | useful in reducing Aβ1-42 | –
92.2 % of ctl | 92.2 % of ctl | 128.0 % of ctl | 128.0 % of ctl | – | – | C=CCc1ccccc1OCC(O)CNC(C)C (centres unmarked) [Alprenolol] | – | – | – | – | 93.8 | 93.8 | 106 | 106 | – | –
99.7 % of ctl | 99.7 % of ctl | 109.0 % of ctl | 109.0 % of ctl | – | – | C=CCSCC1Nc2cc(Cl)c(S(N)(=O)=O)cc2S(=O)(=O)N1 (centres unmarked) [Althiazide] | – | – | – | – | 74.4 | 74.4 | 65.4 | 65.4 | useful in reducing Aβ1-42 | reduced Aβ1-40
– | – | – | – | 1.9 | – | CCCCc1oc2ccccc2c1C(=O)c1cc(I)c(OCCN(CC)CC)c(I)c1 [Amiodarone Hydrochloride] | – | – | – | – | 14.9 | 14.9 | 23.2 | 23.2 | useful in reducing Aβ1-42 | reduced Aβ1-40
13.3 % of ctl | 13.3 % of ctl | 1188.9 % of ctl | 1188.9 % of ctl | – | – | CCOC(=O)C1=C(COCCN)NC(C)=C(C(=O)OC)C1c1ccccc1Cl (centres unmarked) [Amlodipine Besylate] | – | – | – | – | 4.9 | 4.9 | 10.2 | 10.2 | useful in reducing Aβ1-42 | reduced Aβ1-40
110.7 % of ctl | 110.7 % of ctl | 148.9 % of ctl | 148.9 % of ctl | – | – | COc1ccc(C2C(=O)c3ccccc3C2=O)cc1 [Anisindione] | – | – | – | – | 90.1 | 90.1 | 103 | 103 | – | –
97.3 % of ctl | 97.3 % of ctl | 136.8 % of ctl | 136.8 % of ctl | – | – | CC(C)NCC(O)COc1ccc(CC(N)=O)cc1 (centres unmarked) [Atenolol] | – | – | – | – | 90.4 | 90.4 | 94.5 | 94.5 | – | –
98.4 % of ctl | 98.4 % of ctl | 99.4 % of ctl | 99.4 % of ctl | – | – | CC(C)c1c(C(=O)Nc2ccccc2)c(-c2ccccc2)c(-c2ccc(F)cc2)n1CC[C@@H](O)C[C@@H](O)CC(=O)[O-].CC(C)c1c(C(=O)Nc2ccccc2)c(-c2ccccc2)c(-c2ccc(F)cc2)n1CC[C@@H](O)C[C@@H](O)CC(=O)[O-].[Ca+2] [Atorvastatin Calcium] | 66.0 % of ctl | 66.0 % of ctl | 76.9 % of ctl | 76.9 % of ctl | – | – | – | – | useful in reducing Aβ1-42 | reduced Aβ1-40
– | – | – | – | – | – | CC(C)(Oc1ccc(CCNC(=O)c2ccc(Cl)cc2)cc1)C(=O)O [BENZAFIBRATE] | 107.2 % of ctl | 107.2 % of ctl | 99.5 % of ctl | 99.5 % of ctl | – | – | – | – | – | –
99.5 % of ctl | 99.5 % of ctl | 103.5 % of ctl | 103.5 % of ctl | – | – | CCOC(=O)[C@H](CCc1ccccc1)N[C@H]1CCc2ccccc2N(CC(=O)O)C1=O [Benazepril Hydrochloride] | – | – | – | – | 116 | 116 | 115 | 115 | – | –
88.9 % of ctl | 88.9 % of ctl | 104.7 % of ctl | 104.7 % of ctl | 5.0 | 4.44 | NS(=O)(=O)c1cc2c(cc1C(F)(F)F)NC(Cc1ccccc1)NS2(=O)=O (centres unmarked) [Bendrofumethiazide] | 76.2 % of ctl | 76.2 % of ctl | 58.4 % of ctl | 58.4 % of ctl | – | – | – | – | useful in reducing Aβ1-42 | reduced Aβ1-40
98.5 % of ctl | 98.5 % of ctl | 105.1 % of ctl | 105.1 % of ctl | – | – | NS(=O)(=O)c1cc2c(cc1Cl)N=C(CSCc1ccccc1)NS2(=O)=O [Benzthiazide] | – | – | – | – | 106 | 106 | 98.9 | 98.9 | – | –
77.1 % of ctl | 77.1 % of ctl | 1885.2 % of ctl | 1885.2 % of ctl | – | – | CC(C)COCC(CN(Cc1ccccc1)c1ccccc1)N1CCCC1 (centres unmarked) [Bepridil Hydrochloride] | – | – | – | – | 5.1 | 5.1 | 19.9 | 19.9 | useful in reducing Aβ1-42 | reduced Aβ1-40
107.1 % of ctl | 107.1 % of ctl | 107.3 % of ctl | 107.3 % of ctl | – | – | CNCCc1ccccn1 [Betahistine Hydrochloride] | – | – | – | – | 110 | 110 | 98.9 | 98.9 | – | –
– | – | – | – | – | – | CC[C@@H](C)C(=O)O[C@H]1[C@H](O)[C@H]2[C@@H](CN3C[C@@H](C)CC[C@H]3[C@@]2(C)O)[C@@H]2C[C@]34O[C@]5(O)[C@@H](OC(=O)[C@@](C)(O)CC)CC[C@@]3(C)[C@@H]5[C@@H](OC(C)=O)[C@@H](OC(C)=O)[C@H]4[C@@]21O [Protoveratrine A] | 91.7 % of ctl | 91.7 % of ctl | 104.6 % of ctl | 104.6 % of ctl | – | – | – | – | – | –
– | – | – | – | – | – | CC(C)(C)NCC(O)c1ccccc1Cl (centres unmarked) [Tulobuterol] | – | – | – | – | 95.5 | 95.5 | – | – | – | –
96.7 % of ctl | 96.7 % of ctl | 130.8 % of ctl | 130.8 % of ctl | – | – | NC(N)=O [Urea] | – | – | 104.9 % of ctl | 104.9 % of ctl | – | – | – | – | – | –

Structure (SMILES) | MTT (% of ctl) [1, 3] | MTT (% of ctl) [1, 5] | LDH (% of ctl) [2, 3] | LDH (% of ctl) [2, 5] | LDH at E-5M % of change [2] [%] | pEC50 (Aβ1-40; secondary dose-response screening 0.01-100 μM, 24 hours, read-out: EC50 (molar) Aβ1-40) | Ab1-40 (% of ctl) (Aβ1-40; [3]) | Ab1-40 (% of ctl) (Aβ1-40; [4]) | Ab1-42 (% of ctl) (Aβ1-42; [3]) | Ab1-42 (% of ctl) (Aβ1-42; [4]) | activity at 100 µM (Aβ1-40; [3]) [%] | activity at 100 µM (Aβ1-40; [4]) [%] | activity at 100 µM (Aβ1-42; [3]) [%] | activity at 100 µM (Aβ1-42; [4]) [%] | reducing Aβ1-42 (Aβ1-42; primary screening) | reduced Aβ1-40 (Aβ1-40; primary screening)
COc1ccc2c(c1OC)C(=O)O[C@H]2[C@@H]1c2cc3c(cc2CCN1C)OCO3 [1S,9R-Beta-HYDRASTINE] | 101.1 % of ctl | 101.1 % of ctl | 114.2 % of ctl | 114.2 % of ctl | – | – | 114.5 % of ctl | 114.5 % of ctl | 123.6 % of ctl | 123.6 % of ctl | – | – | – | – | – | –
